{"source": "patent US8507440B2", "about": "“Protein kinase C peptides for use in withdrawal” (The Board of Trustees of the Leland Stanford Junior …, priority 2002, dated 2013)", "key": {"[1]": {"system": "N-methyl-D-aspartate (NMDA) receptor currents", "test": "alcohol withdrawal hyperresponsiveness of NMDA-evoked currents in lumbar spinal cord slice motor neurons", "format": "cell-based, rat", "settings": "100 mM EtOH, n=11 motor neurons", "text": "Spinal cords were taken from young rats, and slices of these cords were made and placed in artificial cerebrospinal fluid for patch clamp electrophysiological analysis, to characterize the ability of γPKC peptides to mediate alcohol withdrawal hyperresponsiveness of N-methyl-D-aspartate (NMDA) receptor currents. FIG. 7A is a schematic diagram of the technique, where a lumbar spinal cord slice 10 is shown. The placement of a recording electrode 12 and a pipette 14 for application of NMDA relative to a motor neuron 16 is illustrated.\nSprague-Dawley rats at postnatal day 7-10 were anesthetized with halothane, decapitated, and the spinal cords were quickly removed. Slices […] thick were sectioned from the lumbar region. Whole cell voltage clamp recordings were made from visually-identified motor neurons using infrared video microscopy, a 60× water immersion lens, and a MultiClamp 700A patch clamp amplifier. Cells were held at a holding potential of −60 mV in artificial cerebrospinal fluid (ACSF) containing bicuculline methiodide ([…]), strychnine ([…]), and tetrodotoxin ([…]). Postsynaptic currents were evoked by direct pressure application of 2 mM N-methyl-D-aspartate (NMDA) from a pipette positioned near the recorded cell at 1-2 min intervals, as illustrated in FIG. 7A. The area of evoked currents during and following 100 mM ethanol (EtOH) application was measured and normalized to the average baseline current area during the 10 minutes preceding EtOH application. Data are expressed as mean +/−SEM: Statistical significance was determined by one-way ANOVA followed by Dunn's or Tukey's multiple comparison test with significance set at p<0.05."}, "[2]": {"biological_target": "T1, γPKC (Rattus norvegicus, UniProt P63319)", "T1 construct": "from tissue; host or cells: lumbar spinal cord slices of postnatal day 7-10 Sprague-Dawley rats", "format": "cell-based", "settings": "after application of ethanol 100 mM; control about 14", "description": "Fluorescence immunocytochemical studies were performed on the spinal cord sections, as described in Example 3. The sections were incubated with an anti-γPKC antibody and an anti-neuronal antibody to identify neurons. […] Translocation of γPKC was quantified by counting the number of cells with γPKC localized to the nucleus before (control) and after application of ethanol, as well as after washing with artificial cerebrospinal fluid. […] Two to three sections per animal were counted.\nFluorescence immunocytochemical studies were performed on spinal cord sections […] from control slices (perfused with ACSF for 70 minutes) and EtOH treated slices (perfused with ACSF for 30 minutes followed by 20 min 100 mM EtOH and 20 min wash with ACSF). The sections were incubated with a rabbit anti-PKCg polyclonal antibody (1:500) overnight at 4° C. In some cord sections, a mouse anti-neuronal nuclei monoclonal antibody (NeuN, 1:750) was added to identify neurons. After several washes with ACSF, the sections were labeled for 2 hours at room temperature with fluorescein-labeled secondary antibodies (1:500). Double immunofluorescence was assessed with a laser confocal microscope."}, "[3]": {"system": "7 day old and 21 day old rats", "test": "ethanol withdrawal mechanical allodynia testing (von Frey threshold withdrawal force)", "format": "in vivo, rat"}, "[4]": {"system": "7 day old and 21 day old rats", "test": "ethanol withdrawal thermal hyperalgesia testing (paw withdrawal latency)", "format": "in vivo, rat", "settings": "4 g/kg 15% EtOH"}, "[5]": {"system": "γPKC", "description": "(§1) To determine if EtOH alters the expression and cellular localization of εPKC and γPKC, immunohistochemistry was performed on L4/5 dorsal root ganglion (DRG) and L4/5 lumbar spinal cord sections, as described in Example 4. Rat at postnatal days 7 and 21, treated with saline or 4 g/kg 15% EtOH, were euthanized at 2, 4, or 6 hours post injection for isolation of the lumbar spinal cords.\n(§2) Animals administered a single dose of 4 g/kg 15% EtOH or saline (i.p.) were deeply anesthetized with halothane and euthanized at 2, 4, or 6 hours post injection by transcardiac perfusion (phosphate-buffered saline wash, followed by 4% formaldehyde in PBS, pH 7.4). Following perfusion, lumbar spinal cord and L4/L5 dorsal root ganglia (DRG) were isolated and post-fixed for 3 hours in 4% formaldehyde solution followed by cryoprotection in 30% sucrose/PBS at 4° C. Sections were freeze-mounted in OCT-embedding medium on cork blocks and stored at −80° C. until analysis. For spinal cord sections, free-floating immunohistochemistry was performed on 30 μm L4-L5 spinal sections. Dorsal root ganglia were cut on a cryostat at 10 μm and slide mounted. Slides were heated overnight at 32° C. Immunohistochemistry was performed utilizing an avidin-biotin complex (ABC) technique as previously described (Sweitzer et al., Brain Res., 829(1-2):209-221 (1999)). Rabbit polyclonal antibodies to γPKC (1:500 from Santa Cruz) or εPKC (1:1,000 from Santa Cruz) were used. Immunohistochemistry was scored blinded to experimental conditions.\n(§3) For both spinal cord tissues and DRG, densitometry using ImageJ software was performed on at least three sections from each of three individual animals."}, "[6]": {"system": "εPKC", "description": "as §1, §2, §3"}, "[7]": {"settings": "for maximal blood EtOH concentration: 30 minutes post 4 g/kg 15% EtOH; for maximal EtOH concentration in spinal cord: 4 g/kg 15% EtOH"}, "[8]": {"test": "in vivo", "settings": "rat, 4 g/kg"}, "[9]": {"settings": "21 day old rats, 4 g/kg and 0.5 g/kg 15% EtOH"}}, "note": "Read-outs that look alike come from different tables or passages of the source."}
{"smiles": "CCO", "note": "[EtOH, ethanol]", "values": [{"measurement": "normalized NMDA current (INMDA) area after application of alcohol", "setting": "[1]", "result": "increases"}, {"measurement": "number of cells having γPKC localized in the nucleus", "setting": "[2]", "result": "about 6"}, {"measurement": "threshold withdrawal force after ethanol", "setting": "[3]; 7 day old rats, 1 g/kg 15% EtOH", "result": "did not significantly alter the threshold withdrawal force"}, {"measurement": "paw threshold withdrawal force after ethanol", "setting": "[3]; 7 day old rats, 4 g/kg 15% EtOH, 6 hours and 8 hours post injection", "result": "exhibited mechanical allodynia"}, {"measurement": "threshold withdrawal force after ethanol", "setting": "[3]; 7 day old rats, 4 g/kg 15% EtOH, two hour test interval", "result": "slight but insignificant increase in threshold withdrawal force"}, {"measurement": "mechanical thresholds after ethanol", "setting": "[3]; [9]", "result": "maximally decreased mechanical thresholds at 6 hours post EtOH injection"}, {"measurement": "time withdrawal thresholds remained below baseline", "setting": "[3]; [9]", "result": "up to 72 hours"}, {"measurement": "thermal paw withdrawal latency after ethanol", "setting": "[4]; 7 day old rats, 6 hours", "result": "Thermal hyperalgesia as evidenced by a decrease in paw withdrawal latency, was observed"}, {"measurement": "thermal paw withdrawal latency after ethanol", "setting": "[4]; 21 day old rats, entire time period", "result": "did not exhibit a decrease in paw withdrawal latency"}, {"measurement": "γPKC cellular localization", "setting": "[5]; 2 hours post-EtOH injection", "result": "had translocated to the plasma membrane"}, {"measurement": "number of somata staining positive for γPKC above saline control levels", "setting": "[5]; 7 day old rats, lamina II, 6 hours post injection of 4 g/kg 15% EtOH", "result": 4, "unit": "fold"}, {"measurement": "γPKC staining intensity", "setting": "[5]; 21 day old rats, 2 to 6 hours post-EtOH injection", "result": "γPKC staining intensity increased"}, {"measurement": "cells staining positive for εPKC", "setting": "[6]; 7 day old rats, 2 hour exposure to 4 g/kg 15% EtOH", "result": "the percentage of cells staining positive for εPKC increased"}, {"measurement": "cells staining positive for εPKC and staining intensity", "setting": "[6]; 21 day old rats, 4 g/kg 15% EtOH", "result": "did not result in an increase in the number of positive staining cells or in the staining intensity within positively stained cells"}, {"measurement": "time of peak spinal cord EtOH level", "setting": "[7]; 7 day old and 21 day old rats, post injection", "result": 30, "unit": "min"}, {"measurement": "maximal blood EtOH concentration", "setting": "[7]; 7 day old pups", "result": "5.91 ± 0.46", "unit": "µg/mL"}, {"measurement": "maximal EtOH concentration in spinal cord", "setting": "[7]; 7 day old rats", "result": 14.8, "unit": "μg/mg tissue"}, {"measurement": "maximal EtOH concentration in spinal cord", "setting": "[7]; 21 day old rats", "result": 11.4, "unit": "μg/mg tissue"}, {"measurement": "maximal blood EtOH concentration", "setting": "[7]; 21 day old rats", "result": "5.67 ± 0.60", "unit": "µg/mL"}, {"measurement": "time of peak blood EtOH concentration", "setting": "[7]; both 7 day old and 21 day old rats, post-ethanol injection", "result": 30, "unit": "min"}, {"measurement": "spinal cord later-phase half-life relative to half life for blood EtOH levels", "setting": "[7]; rat, in vivo", "result": 50, "unit": "%"}, {"measurement": "half-life", "setting": "[8]; spinal cord, ip, T ½ Early, 7 day old rat, 4 g/kg 15% EtOH i.p.", "result": 1.6, "unit": "h"}, {"measurement": "half-life", "setting": "[8]; spinal cord, ip, T ½ Early, 21 day old rat, 4 g/kg 15% EtOH i.p.", "result": 1.5, "unit": "h"}, {"measurement": "half-life", "setting": "[8]; spinal cord, ip, T ½ Late, 7 day old rat, 4 g/kg 15% EtOH i.p.", "result": 11.5, "unit": "h"}, {"measurement": "half-life", "setting": "[8]; spinal cord, ip, T ½ Late, 21 day old rat, 4 g/kg 15% EtOH i.p.", "result": 11.7, "unit": "h"}, {"measurement": "half-life", "setting": "[8]; whole blood, intraperitoneal, extension of blood late phase half-life of 21 day old beyond 7 day old rats, blood", "result": 4, "unit": "h"}, {"measurement": "half-life", "setting": "[8]; whole blood, ip, T ½ Early, Blood, 7 day old rat, 4 g/kg 15% EtOH i.p.", "result": 1.9, "unit": "h"}, {"measurement": "half-life", "setting": "[8]; whole blood, ip, T ½ Early, Blood, 21 day old rat, 4 g/kg 15% EtOH i.p.", "result": 1.7, "unit": "h"}, {"measurement": "half-life", "setting": "[8]; whole blood, ip, T ½ Late, Blood, 7 day old rat, 4 g/kg 15% EtOH i.p.", "result": 18.1, "unit": "h"}, {"measurement": "half-life", "setting": "[8]; whole blood, ip, T ½ Late, Blood, 21 day old rat, 4 g/kg 15% EtOH i.p.", "result": 22.5, "unit": "h"}]}
